Data from patent US8871251B2, “Liposome and method for producing the same” (Can Heal BioMediTech Corp., priority 2008, dated 2014).

What was measured:
Test in all cases: MTT assay, curcumin concentration killing 50% of cells
Format in all cases: cell-based
A549 = conditions: A549, human lung carcinoma; mean±SD (n=6); read-out: curcumin concentration required for killing 50% of the cells
Method: (§1) In this experiment, whether the liposome has the capability of carrying drugs is observed by MTT assay. First, curcumin was added into cells at different concentrations, to obtain the curcumin concentration required for killing 50% of the cells. Next, the liposome with curcumin at different concentrations (curcumin-liposome) was sent into cells of the same type respectively, to obtain the curcumin concentration required for killing 50% of the cells. In Table 1, all the concentrations are expressed as mean±standard deviation (SD) (n=6).

HepG2 = conditions: HepG2, human hepatocellular carcinoma; mean±SD (n=6); read-out: curcumin concentration required for killing 50% of the cells
Method: as §1

CT-26 = conditions: CT26; CT-26, mouse colorectal adenocarcinoma; mean±SD (n=6); read-out: curcumin concentration required for killing 50% of the cells
Method: as §1

B16/F10 = conditions: B16/F10, mouse melanoma; mean±SD (n=6); read-out: curcumin concentration required for killing 50% of the cells
Method: as §1

JC = conditions: mouse breast adenocarcinoma, mean±SD (n=6), read-out: curcumin concentration required for killing 50% of the cells
Method: as §1

LL-2 = conditions: LL-2, mouse lung carcinoma; mean±SD (n=6); read-out: curcumin concentration required for killing 50% of the cells
Method: as §1

HeLa = conditions: human cervical cancer, mean±SD (n=6), read-out: curcumin concentration required for killing 50% of the cells
Method: as §1

HT-29 = conditions: HT-29, human colorectal adenocarcinoma; mean±SD (n=6); read-out: curcumin concentration required for killing 50% of the cells
Method: as §1

**Q.** What does the source list for `COc1cc(/C=C/C(=O)CC(=O)/C=C/c2ccc(O)c(OC)c2)ccc1O` [Curcumin, curcumin]?
**A.** IC50 (A549): 30 ± 9.45 µM; IC50 (HepG2): 12.2 ± 1.11 µM; IC50 (CT-26): 7.92 ± 0.77 µM; IC50 (B16/F10): 8.16 ± 1.01 µM; IC50 (JC): 11 ± 1.47 µM; IC50 (LL-2): 10.8 ± 2.33 µM; IC50 (HeLa): 17.7 ± 6.95 µM; IC50 (HT-29): 12.9 ± 1.18 µM
